Data from paper PMC10023787, “Trio-pharmacophore DNA-encoded chemical library for simultaneous selection of fragments and linkers” (Nature Communications, 2023).
Entries after “also recorded” stand apart in the source; their conditions may differ. Like-named read-outs stand apart in the source and are kept apart here.

Assays:
[1] = biological target: T1, MMP-2 (Homo sapiens, UniProt P08253); assay: Dynamic dual-pharmacophore DEL selection against MMP-2, NGS decoding; type: binding; conditions: for MMP2 5L Enrichment Fold: 5L library (Supplementary fig 13); for MMP2 5L Count: 5L library
T1 construct: purchased Sino Biological 10082-HNAH
T1 sequence (P08253 110-660): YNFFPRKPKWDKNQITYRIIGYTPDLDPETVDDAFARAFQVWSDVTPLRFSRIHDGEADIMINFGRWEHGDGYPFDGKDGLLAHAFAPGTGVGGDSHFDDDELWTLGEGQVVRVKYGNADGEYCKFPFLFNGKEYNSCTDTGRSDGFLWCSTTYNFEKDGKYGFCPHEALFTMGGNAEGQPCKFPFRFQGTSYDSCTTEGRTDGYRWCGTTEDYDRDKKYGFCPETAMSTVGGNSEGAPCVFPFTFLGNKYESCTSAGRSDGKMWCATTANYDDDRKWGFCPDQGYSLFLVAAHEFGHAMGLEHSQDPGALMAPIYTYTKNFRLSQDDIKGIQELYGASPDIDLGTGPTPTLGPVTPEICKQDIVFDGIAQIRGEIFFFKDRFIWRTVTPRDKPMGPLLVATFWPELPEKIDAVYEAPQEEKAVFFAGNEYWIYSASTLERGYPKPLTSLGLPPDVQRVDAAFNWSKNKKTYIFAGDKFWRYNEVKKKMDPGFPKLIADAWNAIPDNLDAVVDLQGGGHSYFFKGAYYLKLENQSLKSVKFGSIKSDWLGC
From the text: Matrix metalloproteinases (MMPs) are zinc-dependent endopeptidases capable of degrading and remodeling extracellular matrix components[46],[47]. They are attractive therapeutic targets as high expression levels were detected in various diseases, such as inflammatory diseases, and at different stages of cancers, including metastasis, invasion, and angiogenesis[47]–[53]. As shown in Supplementary Fig. 3c, we performed selections against the two gelatinases (human MMP-2 and human MMP-9) to identify binding fragments for later design and synthesis of small molecule inhibitors. After selection, the three sub-libraries were decoded, and the enrichment was calculated by dividing the post-selection fraction (count/total counts) by the pre-selection fraction (Fig. 4a and Supplementary Fig. 13).
4 µg of MMP-2/MMP-9 was dissolved in 100 µl of selection buffer containing 25 mM Tris-base, 10 mM CaCl2, 150 mM NaCl, 0.05% Tween 20, pH 7.5. 10 µl of 4-Aminophenylmercuric acetate (APMA) (100 mM) solution was added to the protein solution and incubated at 37 °C for 1 h. After activation, the solution was added on top of 40 µl pre-washed Ni-NTA resin and incubated for 30 min on a rotary shaker. The supernatant was discarded, and the resin was washed three times with the selection buffer.
For each independent selection, three sub-libraries were mixed in the selection buffer with a final concentration of 40 nM of each sub-library in 100 µl. The mixture was heat denatured at 90 °C for 1 min and slowly cooled down to allow the formation of the trio-pharmacophore library. The dynamic dual-pharmacophore DEL was provided by DyNAbind GmbH (Merck, DYNA001).
The assembled library was incubated with the protein-bound solid support for 2 h at RT on a rotary shaker. In parallel, selection on bare solid support served as the negative control to exclude promiscuous binders on the resin. After panning, the supernatant was discarded, and the resin was washed three times with 1 ml selection buffer. Finally, 100 µl of 50 mM Tris buffer, pH 7.4 was added to resuspend the resin and the resin was incubated at 95 °C for 5 min to denature the protein, release, and collect the bound library members.
The eluted library members were subjected to sample preparation for NGS. NGS preparation was achieved by two-step PCR. First, the individual selection was indexed using primers containing unique sequences corresponding to each selection. The amplified product was purified from 2% agarose gel. Second, the purified DNA from all selections were pooled in equal amount and subjected to the 2nd PCR step to attach sequences compatible with the NGS flow cell and the sequencing primers. NGS was performed by Novogene UK with Novaseq 6000. Raw data files (fastq files) obtained were decoded using a custom python script and excel. The sequence reads corresponding to each sample was retrieved by searching for the correct index unique to each selection. Then, the code region was extracted from each sequence and assigned to the corresponding identity. The count of each code in each selection sample was obtained by looping through the total reads and counting the occurrence of each code. The enrichment fold of each compound was calculated by first, dividing the count by the total count to get the abundance, second, the abundance after the selection was divided by the abundance of pre-selection to reflect the distribution change of the compound. Next, the enrichment fold was plotted against the count for each member of the library to give the scatter plots as in Fig. 4.

[2] = biological target: T1, MMP-2; assay: MMP-2 inhibition assay (fluorogenic peptide substrate); type: biochemical
Procedure, shortened: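 Hydrolysis of DNP-Pro-Leu-Gly-Met-Trp-Ser-Arg (25 μM final) was tracked kinetically at em 360 nm over 30 min. Enzymes, APMA-activated and at 10 nM (MMP-9) or 6.5 nM (MMP-2) final, sat 30 min at RT with inhibitor in pH 7.5 Tris buffer with CaCl2 and Brij 35 first. Logistic fitting of Vmax against concentration gave IC50, in triplicate.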

[3] = MMP2 selection, sequence count (Supplementary fig 13)
[4] = MMP-2, concentration 1.95 µM, read-out: Mean (MMP-2, Supplementary fig 16)
[5] = MMP-2, concentration 1.95 µM, read-out: Mean (MMP-2 dose-response, Supplementary fig 15)
[6] = MMP-2, concentration 1.95 µM, read-out: Mean (dose-response, Supplementary fig 17)

NCc1c[nH]nn1 [Compound 787]
MMP2 3L Enrichment Fold ([1]; MMP2 selection, 3L library (Supplementary fig 13)): 3.194 | MMP2 3L Count ([1]; MMP2 selection, 3L library, sequence count (Supplementary fig 13)): 2558 | MMP2 5L Enrichment Fold ([1]; MMP2 selection): 0.7494 | MMP2 5L Count [1, 3]: 713 | remaining activity at 0.0156098 µM ([2]; Figure 5a, fragment concentration 0.0156098 µM, read-out: Normalized activity (Mean)): 101% | remaining activity at 0.0780488 µM ([2]; Figure 5a, fragment concentration 0.0780488 µM, read-out: Normalized activity (Mean)): 93.4% | remaining activity at 0.390244 µM ([2]; Figure 5a, fragment concentration 0.390244 µM, read-out: Normalized activity (Mean)): 108% | remaining activity at 1.95122 µM ([2]; Figure 5a, fragment concentration 1.95122 µM, read-out: Normalized activity (Mean)): 92.2% | remaining activity at 9.7561 µM ([2]; Figure 5a, fragment concentration 9.7561 µM, read-out: Normalized activity (Mean)): 105% | remaining activity at 48.7805 µM ([2]; Figure 5a, fragment concentration 48.7805 µM, read-out: Normalized activity (Mean)): 96.9% | remaining activity at 243.902 µM ([2]; Figure 5a, fragment concentration 243.902 µM, read-out: Normalized activity (Mean)): 87.8% | remaining activity at 1219.51 µM ([2]; Figure 5a, fragment concentration 1219.51 µM, read-out: Normalized activity (Mean)): 57.1% | remaining activity at 0.0156 µM ([2]; MMP-2, concentration 0.0156 µM, read-out: Mean (MMP-2, Supplementary fig 16)): 101% | remaining activity at 0.08 µM ([2]; MMP-2, concentration 0.08 µM, read-out: Mean (MMP-2, Supplementary fig 16)): 93.5% | remaining activity at 0.39 µM ([2]; MMP-2, concentration 0.39 µM, read-out: Mean (MMP-2, Supplementary fig 16)): 108% | remaining activity at 1.95 µM [2, 4]: 92.2% | remaining activity at 9.76 µM ([2]; MMP-2, concentration 9.76 µM, read-out: Mean (MMP-2, Supplementary fig 16)): 105% | remaining activity at 48.78 µM ([2]; MMP-2, concentration 48.78 µM, read-out: Mean (MMP-2, Supplementary fig 16)): 96.9% | remaining activity at 243.9 µM ([2]; MMP-2, concentration 243.90 µM, read-out: Mean (MMP-2, Supplementary fig 16)): 87.8% | remaining activity at 0.0156 µM ([2]; MMP-2, concentration 0.0156 µM, read-out: Mean (MMP-2 dose-response, Supplementary fig 15)): 101% | remaining activity at 0.0156 µM ([2]; MMP-2, concentration 0.0156 µM, read-out: Mean (dose-response, Supplementary fig 17)): 101% | remaining activity at 0.08 µM ([2]; MMP-2, concentration 0.08 µM, read-out: Mean (MMP-2 dose-response, Supplementary fig 15)): 93.5% | remaining activity at 0.08 µM ([2]; MMP-2, concentration 0.08 µM, read-out: Mean (dose-response, Supplementary fig 17)): 93.5% | remaining activity at 0.39 µM ([2]; MMP-2, concentration 0.39 µM, read-out: Mean (MMP-2 dose-response, Supplementary fig 15)): 108% | remaining activity at 0.39 µM ([2]; MMP-2, concentration 0.39 µM, read-out: Mean (dose-response, Supplementary fig 17)): 108% | remaining activity at 1.95 µM [2, 5]: 92.2% | remaining activity at 1.95 µM [2, 6]: 92.2% | remaining activity at 9.75 µM ([2]; MMP-2, concentration 9.75 µM, read-out: Mean (MMP-2 dose-response, Supplementary fig 15)): 105% | remaining activity at 9.76 µM ([2]; MMP-2, concentration 9.76 µM, read-out: Mean (dose-response, Supplementary fig 17)): 105% | remaining activity at 48.76 µM ([2]; MMP-2, concentration 48.76 µM, read-out: Mean (MMP-2 dose-response, Supplementary fig 15)): 96.9% | remaining activity at 48.78 µM ([2]; MMP-2, concentration 48.78 µM, read-out: Mean (dose-response, Supplementary fig 17)): 96.9% | remaining activity at 243.8 µM ([2]; MMP-2, concentration 243.80 µM, read-out: Mean (MMP-2 dose-response, Supplementary fig 15)): 87.8% | remaining activity at 243.9 µM ([2]; MMP-2, concentration 243.90 µM, read-out: Mean (dose-response, Supplementary fig 17)): 87.8% | remaining activity at 1219.51 µM ([2]; MMP-2, concentration 1219.51 µM, read-out: Mean (dose-response, Supplementary fig 17)): 57.1%

Cn1c(O)nc2cc(C(=O)O)cnc21 [Compound 826]
Enrichment Fold ([1]; MMP2 3L (3' sub-library members)): 11.3583 | Count ([1]; MMP2 3L (3' sub-library members), NGS sequence count after selection): 12779 | MMP2 5L Enrichment Fold ([1]; MMP2 selection): 2.035 | MMP2 5L Count [1, 3]: 2158 | remaining activity at 0.0305176 µM ([2]; Figure 5a, fragment concentration 0.0305176 µM, read-out: Normalized activity (Mean)): 105% | remaining activity at 0.12207 µM ([2]; Figure 5a, fragment concentration 0.12207 µM, read-out: Normalized activity (Mean)): 112% | remaining activity at 0.488281 µM ([2]; Figure 5a, fragment concentration 0.488281 µM, read-out: Normalized activity (Mean)): 97.4% | remaining activity at 1.95312 µM ([2]; Figure 5a, fragment concentration 1.95312 µM, read-out: Normalized activity (Mean)): 96.2% | remaining activity at 7.8125 µM ([2]; Figure 5a, fragment concentration 7.8125 µM, read-out: Normalized activity (Mean)): 103% | remaining activity at 31.25 µM ([2]; Figure 5a, fragment concentration 31.25 µM, read-out: Normalized activity (Mean)): 92.9% | remaining activity at 125 µM ([2]; Figure 5a, fragment concentration 125 µM, read-out: Normalized activity (Mean)): 97.7% | remaining activity at 500 µM ([2]; Figure 5a, fragment concentration 500 µM, read-out: Normalized activity (Mean)): 89.5% | remaining activity at 0.12 µM ([2]; MMP-2, concentration 0.12 µM, read-out: Mean (MMP-2, Supplementary fig 16)): 112% | remaining activity at 0.49 µM ([2]; MMP-2, concentration 0.49 µM, read-out: Mean (MMP-2, Supplementary fig 16)): 97.4% | remaining activity at 1.95 µM [2, 4]: 96.2% | remaining activity at 7.81 µM ([2]; MMP-2, concentration 7.81 µM, read-out: Mean (MMP-2, Supplementary fig 16)): 103% | remaining activity at 31.25 µM ([2]; MMP-2, concentration 31.25 µM, read-out: Mean (MMP-2, Supplementary fig 16)): 92.9% | remaining activity at 125 µM ([2]; MMP-2, concentration 125.00 µM, read-out: Mean (MMP-2, Supplementary fig 16)): 97.7% | remaining activity at 500 µM ([2]; MMP-2, concentration 500.00 µM, read-out: Mean (MMP-2, Supplementary fig 16)): 89.5% | remaining activity at 0.12 µM ([2]; MMP-2, concentration 0.12 µM, read-out: Mean (MMP-2 dose-response, Supplementary fig 15)): 112% | remaining activity at 0.12 µM ([2]; MMP-2, concentration 0.12 µM, read-out: Mean (dose-response, Supplementary fig 17)): 112% | remaining activity at 0.49 µM ([2]; MMP-2, concentration 0.49 µM, read-out: Mean (MMP-2 dose-response, Supplementary fig 15)): 97.4% | remaining activity at 0.49 µM ([2]; MMP-2, concentration 0.49 µM, read-out: Mean (dose-response, Supplementary fig 17)): 97.4% | remaining activity at 1.95 µM [2, 5]: 96.2% | remaining activity at 1.95 µM [2, 6]: 96.2% | remaining activity at 7.81 µM ([2]; MMP-2, concentration 7.81 µM, read-out: Mean (MMP-2 dose-response, Supplementary fig 15)): 103% | remaining activity at 7.81 µM ([2]; MMP-2, concentration 7.81 µM, read-out: Mean (dose-response, Supplementary fig 17)): 103% | remaining activity at 31.25 µM ([2]; MMP-2, concentration 31.25 µM, read-out: Mean (MMP-2 dose-response, Supplementary fig 15)): 92.9% | remaining activity at 31.25 µM ([2]; MMP-2, concentration 31.25 µM, read-out: Mean (dose-response, Supplementary fig 17)): 92.9% | remaining activity at 125 µM ([2]; MMP-2, concentration 125.00 µM, read-out: Mean (MMP-2 dose-response, Supplementary fig 15)): 97.7% | remaining activity at 125 µM ([2]; MMP-2, concentration 125.00 µM, read-out: Mean (dose-response, Supplementary fig 17)): 97.7% | remaining activity at 500 µM ([2]; MMP-2, concentration 500.00 µM, read-out: Mean (MMP-2 dose-response, Supplementary fig 15)): 89.5% | remaining activity at 500 µM ([2]; MMP-2, concentration 500.00 µM, read-out: Mean (dose-response, Supplementary fig 17)): 89.5% | inhibitory effect ([2]; in words): No inhibitory effects could be measured; also recorded: did not exhibit meaningful activity
